Results from publication PMC9820345, “Metal Complexes of a 5-Nitro-8-Hydroxyquinoline-Proline Hybrid with Enhanced Water Solubility Targeting Multidrug Resistant Cancer Cells” (International Journal of Molecular Sciences, 2022).

How the values were obtained:
[1] = Stability of the complexes in RPMI medium (UV-vis, 1H NMR); format: physicochemical; conditions: compared with serum
Excerpt: The stability of the RhCp* and RuCym complexes of HQNO2-L-Pro was also monitored in Roswell Park Memorial Institute (RPMI) medium used for the in vitro cell studies (in the case of Colo cells), and in blood serum using UV-vis and ^1H NMR spectroscopy. […] Despite these changes, the dissociation of the complexes is not likely as the liberation of the unbound ligand was not observed; thus, the complexes most probably form ternary complexes with the components of the serum or the medium. In order to further study the reactivity of these complexes with bioligands, their interaction with human serum albumin (HSA) and selected oligopeptides (also used as binding models of HSA) was assayed.

[2] = at 1 μM concentration; pH 7.4
Method: Thus, a ligand displacement study was performed spectrophotometrically using 2,2’-bipyridine as the competitor (Figure S21) to determine the stability constant for the RhCp* complex at pH 7.4.
SUPPLEMENTARY INFORMATION
Figure S 20. UV-vis spectr a recorded for the (a) RhCp* − HQNO2-L-Pro (1:1) and (b) RuCym −
HQNO2-L-Pro (1:1) systems at different times at pH 1. Absorbance values plotted against the time
measured in the (c) RhCp* − HQNO2-L-Pro (1:1) at 435 nm, and (d) RuCym − HQNO2-L-Pro (1:1) at
410 nm at pH 1 and 4 (indicated in the figure). { cligand = 50 μM; cRhCp* or RuCym = 50 μM; l = 1 cm; t =
Figure S 21. (a) UV -vis spectra of the R hCp*-HQNO2-L-Pro complex at various equivalents of 2,2’ -
bipyridine at pH 7.4 after 24 h waiting time and (b) the measured absorbance values at 4 35 nm plotted
against the 2,2’-bipyridine:complex ratio.
complex taken from Ref. [74]. {ccomplex = 50 μM; PBS’ buffer; l = 1 cm; t = 25.0 °C}
c (2,2'-bipyridine) / c (complex) […]

[3] = target: T1, HSA site I (Trp-214) (Homo sapiens, UniProt P02768); test: HSA Trp-214 quenching by fluorometry (site I); format: binding; conditions: 1 µM HSA, pH 7.4 (PBS'), 24 h incubation
T1 construct: purchased Sigma-Aldrich (Darmstadt, Germany) A8763
T1 sequence (P02768 25-609): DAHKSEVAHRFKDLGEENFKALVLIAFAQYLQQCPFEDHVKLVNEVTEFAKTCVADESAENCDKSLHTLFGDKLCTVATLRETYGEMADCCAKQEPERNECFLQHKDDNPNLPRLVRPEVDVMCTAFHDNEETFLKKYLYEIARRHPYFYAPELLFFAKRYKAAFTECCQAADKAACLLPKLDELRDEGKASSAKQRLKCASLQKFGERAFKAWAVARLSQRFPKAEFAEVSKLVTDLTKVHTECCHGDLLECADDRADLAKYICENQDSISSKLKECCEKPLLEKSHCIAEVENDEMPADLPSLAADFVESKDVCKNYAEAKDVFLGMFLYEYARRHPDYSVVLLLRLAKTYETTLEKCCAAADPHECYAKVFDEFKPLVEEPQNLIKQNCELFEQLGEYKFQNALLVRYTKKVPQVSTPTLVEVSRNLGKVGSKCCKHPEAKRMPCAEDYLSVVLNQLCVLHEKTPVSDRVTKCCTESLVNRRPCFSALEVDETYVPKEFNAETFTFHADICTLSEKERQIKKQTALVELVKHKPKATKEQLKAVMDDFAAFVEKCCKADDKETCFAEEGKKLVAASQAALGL
Method: Therefore, tryptophan (Trp-214) quenching and dansylglycine (DG) site marker displacement experiments were conducted by fluorometry to obtain information about the binding at sites I and II, respectively, using the same approach reported in our former paper. A representative spectral series is shown in Figure 9a for the Trp-214 quenching experiment, upon the addition of the RhCp*–HQNO2-L-Pro complex and the computed binding constants (logKQ’ and logKDG’) which can be found in Figure 9b, in addition to the corresponding data for the HQCl-L-Pro complexes.
A Fluoromax (Horiba Jobin Yvon, Longjumeau, France) spectrofluorometer was utilized for fluorescence measurements using a 1 cm × 1 cm quartz cuvette. Samples contained 1 µM HSA or DG and 1 µM HSA at pH 7.4 (PBS’), and the complex concentration was varied between 0 and 53 µM. The measurements were carried out on individual samples. Excitation wavelengths were 295 nm for Trp-214 quenching, and 335 nm for the DG displacement studies, respectively. The calculated conditional stability constants for HSA–complex species were obtained using the computer program HypSpec. Calculations always were based on data obtained from at least two independent measurements. Self-absorbance and inner filter effect had to be taken into account, and corrections were made as was described in our former works.

Row | Compound | spectral changes on incubation in RPMI medium [1] | dissociation of the complex expected [2] [%] | quenching constant logKQ' [3] | Kd ([3]; read-out: quenching constant logKQ' (converted)) [µM]
1 | CC1=C(C)[C](C)([Rh]([Cl])[O]c2c(C[NH+]3CCC[C@H]3C(=O)O)cc([N+](=O)[O-])c3cccnc23)C(C)=C1C.[Cl-] [RhCp*-HQNO2-L-Pro, [RhCp*(HQNO2-L-Pro)Cl]Cl] | more significant | < 1 | 5.1 | –
2 | O=C(O)[C@@H]1CCCN1Cc1cc([N+](=O)[O-])c2cccnc2c1O [HQNO2-L-Pro, (2S)-1-((8-hydroxy-5-nitroquinolin-7-yl)methyl)pyrrolidin-1-ium-2-carboxylate] | – | – | – | 16.6
3 | Cc1ccc(C(C)C)cc1.O=C(O)[C@@H]1CCC[NH+]1Cc1cc([N+](=O)[O-])c2ccc[n+]3c2c1[O][Ru-]3[Cl].[Cl-] [RuCym-HQNO2-L-Pro, [RuCym(HQNO2-L-Pro)Cl]Cl] | more significant | – | – | –
